Laboratory results taken from the supplement of paper PMC10307832.

Columns and labels:
Assay in all cases: relative viability (nuclei count vs DMSO), 5 days (fraction); higher = more cells survive
Idelalisib + Decitabine = compound: CC[C@H](Nc1ncnc2[nH]cnc12)c1nc2cccc(F)c2c(=O)n1-c1ccccc1 [Idelalisib] + Nc1ncn([C@H]2C[C@H](O)[C@@H](CO)O2)c(=O)n1 [Decitabine] (partner 2 µM)
In short: (§1)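 Values are medians from duplicate plates. Each reflects relative viability, defined as the nuclei count of treated wells over that of vehicle wells. Lung cancer cell lines in 1536-well plates were pin-tool dosed one day after seeding with one drug alone or with a fixed anchor-drug dose plus five library-drug doses (not always all listed) in √10 steps, then fixed, stained and imaged at 4× after 5 days.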

Pemetrexed + Trametinib = compound: Nc1nc2[nH]cc(CCc3ccc(C(=O)N[C@@H](CCC(=O)O)C(=O)O)cc3)c2c(=O)[nH]1 [Pemetrexed] + CC(=O)Nc1cccc(-n2c(=O)n(C3CC3)c(=O)c3c(Nc4ccc(I)cc4F)n(C)c(=O)c(C)c32)c1 [Trametinib] (partner 0.02 µM)
In short: as §1

Idelalisib + Lapatinib = compound: CC[C@H](Nc1ncnc2[nH]cnc12)c1nc2cccc(F)c2c(=O)n1-c1ccccc1 [Idelalisib] + CS(=O)(=O)CCNCc1ccc(-c2ccc3ncnc(Nc4ccc(OCc5cccc(F)c5)c(Cl)c4)c3c2)o1 [Lapatinib] (partner 2 µM)
In short: as §1

Pemetrexed + Crizotinib = compound: Nc1nc2[nH]cc(CCc3ccc(C(=O)N[C@@H](CCC(=O)O)C(=O)O)cc3)c2c(=O)[nH]1 [Pemetrexed] + C[C@@H](Oc1cc(-c2cnn(C3CCNCC3)c2)cnc1N)c1c(Cl)ccc(F)c1Cl [Crizotinib] (partner 1 µM)
In short: as §1

| Cell Line | relative viability (Idelalisib + Decitabine; first compound 0.04 µM) | relative viability (Idelalisib + Decitabine; first compound 0.1265 µM) | relative viability (Idelalisib + Decitabine; first compound 0.4 µM) | relative viability (Idelalisib + Decitabine; first compound 1.265 µM) | relative viability (Idelalisib + Decitabine; first compound 4 µM) | relative viability (Pemetrexed + Trametinib; first compound 0.002 µM) | relative viability (Pemetrexed + Trametinib; first compound 0.006325 µM) | relative viability (Pemetrexed + Trametinib; first compound 0.06325 µM) | relative viability (Pemetrexed + Trametinib; first compound 0.2 µM) | relative viability (Idelalisib + Lapatinib; first compound 0.04 µM) | relative viability (Idelalisib + Lapatinib; first compound 0.1265 µM) | relative viability (Idelalisib + Lapatinib; first compound 0.4 µM) | relative viability (Idelalisib + Lapatinib; first compound 1.265 µM) | relative viability (Idelalisib + Lapatinib; first compound 4 µM) | relative viability (Pemetrexed + Crizotinib; first compound 0.002 µM) | relative viability (Pemetrexed + Crizotinib; first compound 0.006325 µM) | relative viability (Pemetrexed + Crizotinib; first compound 0.02 µM) | relative viability (Pemetrexed + Crizotinib; first compound 0.06325 µM) | relative viability (Pemetrexed + Crizotinib; first compound 0.2 µM) | relative viability (Pemetrexed + Trametinib; first compound 0.02 µM) |
| --- | --- | --- | --- | --- | --- | --- | --- | --- | --- | --- | --- | --- | --- | --- | --- | --- | --- | --- | --- | --- |
| NCI-H650 | 0.345 | 0.324 | 0.344 | 0.348 | 0.28 | 0.894 | 0.887 | 1.03 | 1.02 | 1.17 | 1.07 | 0.944 | 0.924 | 0.877 | 0.698 | 0.725 | 0.66 | 0.762 | 0.696 |  |
| IA-LM |  |  |  |  |  |  |  |  |  | 0.641 | 0.733 | 0.958 | 1.24 | 0.816 | 0.807 | 0.665 | 0.772 | 0.804 | 0.634 |  |
| A-427 | 0.57 | 0.564 | 0.545 | 0.562 | 0.507 | 0.785 | 0.794 | 0.696 | 0.733 | 1.11 | 1.06 | 1.04 | 1.07 | 1.04 | 0.905 | 0.894 | 0.953 | 0.936 | 0.884 | 0.794 |
| NCI-H2347 | 0.612 | 0.589 | 0.752 | 0.621 | 0.512 | 0.282 | 0.376 | 0.287 | 0.28 | 0.942 | 0.917 | 0.84 | 1.01 | 0.969 | 0.689 | 0.616 | 0.694 | 0.577 | 0.477 | 0.246 |
| NCI-H1793 | 0.404 | 0.398 |  | 0.454 | 0.38 | 0.411 | 0.323 | 0.423 | 0.424 | 0.664 | 0.635 | 0.406 | 0.583 | 0.651 |  |  |  |  |  | 0.381 |
| CAL-12T |  |  |  |  |  | 0.332 | 0.329 | 0.347 | 0.331 | 0.672 | 0.7 | 0.616 | 0.471 | 0.501 | 0.647 | 0.67 | 0.971 | 0.65 | 0.643 | 0.328 |
| ChaGo-K-1 | 0.515 | 0.404 | 0.524 | 0.538 | 0.46 | 0.902 | 0.848 | 0.662 | 0.31 |  |  |  |  |  | 1.15 | 1 | 0.969 | 0.366 | 0.344 | 0.871 |
| SW 900 | 0.387 | 0.415 | 0.505 | 0.498 | 0.377 | 0.841 | 0.793 | 0.67 | 0.549 |  |  |  |  |  |  |  |  |  |  | 0.928 |
| NCI-H441 | 0.313 | 0.235 |  | 0.267 | 0.187 | 0.536 | 0.501 | 0.303 | 0.247 |  |  |  |  |  | 0.608 | 0.777 | 0.865 | 0.567 | 0.396 | 0.448 |
| LCLC-103H | 0.693 | 0.707 | 0.692 | 0.795 | 0.679 | 0.659 | 0.639 | 0.698 | 0.677 |  |  |  |  |  | 0.94 | 1.01 | 1.07 | 1.08 | 1.07 | 0.734 |
